Patent US7601735B2, “Antiviral compounds” (priority 2001, dated 2009)
“And” between values parts separate entries of the source, which are not always exact repeats. Identical values can stand only once. Like-named read-outs stand apart in the source and are kept apart here.

What was measured:
[1] = tested on: BVDV NADL; assay: Plaque reduction assay in MDBK cells; format: cell-based, bovine viral diarrhoea virus; conditions: for IC50 / inhibition of formation of BVDV plaques: MDBK cells; for concentrations at which only partial inhibition was shown: parallel plaque reduction experiments; for inhibition of formation of BVDV plaques: FIG. 1
Method: MDBK cells (NBL-1) (ATCC CCL22) derived from bovine kidney and cytopathic (cp) BVDV (strain NADL) (ATCC VR-534) were available from the American Type Culture Collection (ATCC).
(§1) MDBK cells were seeded into 6-well cell culture plates (Nunclon™, Nunc, Denmark) and allowed to grow to confluency. The cells are washed twice in warm phosphate buffered saline (PBS) and then infected with BVDV NADL (150 pfu/well) in 0.25 ml PBS containing 1% horse serum and 1 mM MgCl2. The cell culture plates were then incubated at 37° C. for one hour with 5% CO2 and the plates rocked every 15-20 minutes. The virus inoculum was then removed and replaced with 3.0 ml of 0.5% low-gelling temperature agarose overlay diluted in DMEM supplemented with 5% horse serum, 2 mM L-glutamine, 50 U/ml penicillin and 50 Lg/ml streptomycin and containing different concentrations of test compound or no compound. At least duplicate or triplicate wells were used for each concentration of test compound. The agarose was allowed to solidify at room temperature for 15 minutes and then incubated at 37° C. with 5% CO2. After 3 days incubation the cells were fixed by adding 1.5 ml of a […] solution over the agar overlay and leaving overnight. The agar was gently removed from the wells and the cells stained with 0.3% methylene blue in PBS for 10 minutes at room temperature. The excess stain was removed and the cells washed with PBS prior to drying of the plates and counting of the viral plaques microscopically. Dose response lines were plotted from the mean number of plaques present versus the log of the concentration of the compound. The 50% Inhibitory concentration (IC50) was computed after linear regression analysis.

[2] = tested on: MDBK cells; assay: Cytotoxicity in plaque reduction assay, microscopic examination of the cell monolayers; format: cell-based, bovine
Method: as §1
(§2) There was no sign of cytotoxicity at concentrations up to 1000 μM as judged by microscopic examination of the cell monolayers.

[3] = tested on: BVDV NADL; assay: XTT cytopathicity assay, infected cells; format: cell-based, bovine viral diarrhoea virus; conditions: for protection of MDBK cells against virus-induced cell death (cytopathic effect of BVDV): FIG. 2
Method: The cells were washed twice in warm phosphate buffered saline (PBS) and then infected with BVDV NADL (100 pfu/well) in 100 μl of DMEM supplemented with 5% horse serum, 2 mM L-glutamine, 50 U/ml penicillin and 50 μg/ml streptomycin. Some wells were mock infected to act as controls. A further 100 μl of DMEM supplemented as above, but containing different concentrations of test compound or no compound was then added to each well. Triplicate wells were used for each compound concentration. In parallel, uninfected cells were treated with compound to assess cytotoxicity. The plates were then incubated at 37° C. with 5% CO2. […] The absorbance was then determined at 450 nm.

[4] = tested on: MDBK cells; assay: XTT cytopathicity assay, uninfected cells (cytotoxicity); format: cell-based, bovine; conditions: for CC50: uninfected MDBK cells, 6 days
Method: (§3) MDBK cells were seeded into 96-well cell culture plates (Costar® 3596, Corning Incorp., USA) and allowed to grow to confluency. The cells were washed twice in warm phosphate buffered saline (PBS) and then infected with BVDV NADL (100 pfu/well) in 100 μl of DMEM supplemented with 5% horse serum, 2 mM L-glutamine, 50 U/ml penicillin and 50 μg/ml streptomycin. Some wells were mock infected to act as controls. A further 100 μl of DMEM supplemented as above, but containing different concentrations of test compound or no compound was then added to each well. Triplicate wells were used for each compound concentration. In parallel, uninfected cells were treated with compound to assess cytotoxicity. The plates were then incubated at 37° C. with 5% CO2. After 6 days 25 μl of a 1 mg/ml 2,3-bis[2-methoxy-4-nitro-5-sulphophenyl]-2H-tetrazolium-5-carboxanilide (XTT)/25 μM phenazine methosulphate (PMS) solution (XTT and PMS purchased from Sigma, Poole, Dorset, UK) was then added to each well and the plates incubated for 2 hours at 37° C. with 5% CO2. The absorbance was then determined at 450 nm. Data was plotted as O. D versus the log of the concentration of the compound and the 50% inhibitory concentration (IC50) computed.

[5] = tested on: BVDV; assay: XTT cytopathicity assay, Bucast in combination with interferon alpha; format: cell-based, bovine viral diarrhoea virus
Method: as §3
The combination indexes (CI) were calculated using the formula of Suhnel (Antiviral Research, 13, 23-40). A CI value of less than 1 indicates a synergistic interaction and values of less than 0.8 are considered to indicate a statistically significant result.

[6] = Cytotoxicity in plaque reduction assay, microscopic examination of the cell monolayers; format: cell-based, bovine; conditions: bovine
Method: as §1, §2

[7] = XTT cytopathicity assay, uninfected cells (cytotoxicity); format: cell-based, bovine; conditions: bovine
Method: as §3

[8] = individual experiments, 150 pfu/well, 3 days, read-out: IC50
[9] = mean of experiments, read-out: Mean IC50 (μM) ± SD
[10] = MDBK cell monolayers, plaque reduction assay
[11] = individual experiments, MOI = 0.01, read-out: *IC50

| Molecule | IC50 [1, 8] | IC50 [1, 9] [µM] | concentrations at which only partial inhibition was shown [1] [µM] | protection of MDBK cells against virus-induced cell death (cytopathic effect of BVDV) [3] | IC50 [3, 11] | cytotoxicity to uninfected treated cells ([4]; FIG. 2) | CC50 [4] [µM] | inhibition of formation of BVDV plaques [1] | CC50 [2, 10] [µM] | IC50 ([3]; MOI 0.0001, read-out: IC50) [µM] | IC50 ([3]; MOI 0.001, read-out: IC50) [µM] | IC50 ([3]; MOI 0.01, read-out: IC50) | IC50 ([3]; MOI 0.1, read-out: IC50) | further results |
| --- | --- | --- | --- | --- | --- | --- | --- | --- | --- | --- | --- | --- | --- | --- |
| CCCCCCCCCN1C[C@H](O)[C@@H](O)[C@H](O)[C@H]1CO [N-Nonyl-DNJ, N-nonyl-deoxynojirimycin] | 90 µM and 120 µM | 105 | > 300 | neither N-butyl-DNJ or N-nonyl-DNJ demonstrated any protection | 60 µM and > 100 µM | clearly cytotoxic | 120 | – | – | – | – | – | – | CC50 (μM) [2, 10]: Toxic @ 300; cytotoxicity to cells ([2]; at a concentration of 300 μM): clearly cytotoxic |
| CCCC(=O)O[C@H]1CN2CC[C@H](O)[C@@H]2[C@@H](O)[C@@H]1O [Bucast, 60-butanoylcastanospermine] | 10 µM (2×) and 20 µM and 25 µM | 16.2 | – | protected MDBK cells against virus-induced cell death | 60 µM (2×) and 30 µM and 70 µM and 40 µM | no cytotoxicity | > 300 | inhibited the formation of BVDV plaques in a dose dependent manner | > 1000 | 5 | 40 | 60 µM and 30 µM | 200 µM and 170 µM | times more potent than castanospermine ([1]; ratio of mean IC50): approximately 13 times; IC50 ([3]; mean, MOI = 0.01, read-out: mean IC50): 36 µM and 52 µM; IC50 ([5]; fixed interferon α 0 IRU/well): 52 ± 16.4 µM; IC50 ([5]; fixed interferon α 0.125 IRU/well): 13 µM; IC50 ([5]; fixed interferon α 0.25 IRU/well): 4 µM; IC50 ([5]; fixed interferon α 0.5 IRU/well): 3 µM |
| OC1CN2CC[C@H](O)[C@@H]2C(O)[C@@H]1O (stereo partly drawn) [Castanospermine, [1S-(1α, 6β,7α,8β,8αβ)]-octahydro-1,6,7,8-indoli-zinetetrol] | 190 µM and 280 µM | – | – | protected MDBK cells against virus-induced cell death | 500 µM | – | – | inhibited the formation of BVDV plaques in a dose dependent manner | – | – | – | – | – | IC50 ([1]; Bovine viral diarrhea virus isolates and strains, MDBK, in Bos taurus, 72 h, individual experiments, 150 pfu/well, 3 days, read-out: IC50): 180 µM; IC50 ([1]; Bovine viral diarrhea virus isolates and strains, MDBK, in Bos taurus, mean of experiments, read-out: Mean IC50 (μM) ± SD): 217 µM; CC50 at 3 days [6]: > 1000 µM; IC50 ([3]; Bovine viral diarrhea virus isolates and strains, in Bos taurus, individual experiments, MOI = 0.01, read-out: *IC50): 300 µM; IC50 ([3]; Bovine viral diarrhea virus isolates and strains, in Bos taurus, read-out: mean IC50 (μM), mean, MOI = 0.01): 400 µM; CC50 at 6 days [7]: > 1000 µM; cytotoxicity to uninfected treated cells [4]: no cytotoxicity |
| Interferon α | – | – | – | – | – | – | – | – | – | – | – | – | – | IC50 ([3]; interferon alone): 1.3 interferon resistance units (IRU) per well; IC50 Interferon α (IRU/well) ([5]; fixed Bucast 0 μM): 1.3 IRU/well; IC50 Interferon α (IRU/well) ([5]; fixed Bucast 5 μM): 0.22 IRU/well; IC50 Interferon α (IRU/well) ([5]; fixed Bucast 10 μM): 0.12 IRU/well |
| CCCCN1C[C@H](O)[C@@H](O)[C@H](O)[C@H]1CO [N-Butyl-DNJ, N-butyl-deoxynojirimycin] | > 300 µM and 250 µM | – | > 100 | neither N-butyl-DNJ or N-nonyl-DNJ demonstrated any protection | > 1000 µM | no cytotoxicity | > 1000 | – | > 300 | 55 | > 300 | > 300 µM | > 300 µM | fold less potent than Bucast ([3]; very low MOI): 10 fold |
